The values that follow come from ChEMBL document CHEMBL1125151, “Aldosterone antagonists. 3. Synthesis and activities of steroidal 7 alpha-(alkoxycarbonyl)-15,16-methylene spirolactones” (1990).

What is called Inhibition is the change of the read-out against control, counted positive when it falls. Low readings indicate a response near the control, high ones a response far below the control.

The target in experiment [1] is T1, Androgen receptor (Rattus norvegicus) (UniProt P15207).
T1 sequence (whole entry): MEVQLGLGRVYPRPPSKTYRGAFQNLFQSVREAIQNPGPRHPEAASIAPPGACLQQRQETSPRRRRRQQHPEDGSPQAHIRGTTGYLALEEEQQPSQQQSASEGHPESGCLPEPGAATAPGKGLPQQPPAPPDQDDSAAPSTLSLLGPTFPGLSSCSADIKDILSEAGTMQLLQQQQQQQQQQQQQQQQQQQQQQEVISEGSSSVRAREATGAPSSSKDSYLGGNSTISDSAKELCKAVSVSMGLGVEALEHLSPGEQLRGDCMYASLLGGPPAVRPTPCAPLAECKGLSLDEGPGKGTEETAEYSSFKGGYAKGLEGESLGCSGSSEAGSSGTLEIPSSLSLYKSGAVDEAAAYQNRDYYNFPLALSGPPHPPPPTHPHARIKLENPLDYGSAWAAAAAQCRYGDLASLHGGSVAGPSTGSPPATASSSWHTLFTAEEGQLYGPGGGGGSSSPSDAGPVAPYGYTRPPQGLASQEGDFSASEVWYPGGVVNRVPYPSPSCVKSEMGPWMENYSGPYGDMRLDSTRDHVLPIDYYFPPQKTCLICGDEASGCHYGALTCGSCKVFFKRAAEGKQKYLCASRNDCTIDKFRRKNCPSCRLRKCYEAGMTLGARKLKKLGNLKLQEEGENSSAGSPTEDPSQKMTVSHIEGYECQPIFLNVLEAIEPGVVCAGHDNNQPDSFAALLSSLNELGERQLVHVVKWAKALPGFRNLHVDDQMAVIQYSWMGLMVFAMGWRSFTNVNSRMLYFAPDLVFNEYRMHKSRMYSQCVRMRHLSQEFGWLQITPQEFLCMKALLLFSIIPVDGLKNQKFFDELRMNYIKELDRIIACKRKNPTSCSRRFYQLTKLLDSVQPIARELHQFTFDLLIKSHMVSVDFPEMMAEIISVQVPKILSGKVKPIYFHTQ
Kind of experiment: Binding to rat prostate Androgen receptor compared to dihydrotestosterone. Particulars: Prostate gland.

The target in experiment [2] is T2, Mineralocorticoid receptor (Rattus norvegicus) (UniProt P22199).
T2 sequence (whole entry): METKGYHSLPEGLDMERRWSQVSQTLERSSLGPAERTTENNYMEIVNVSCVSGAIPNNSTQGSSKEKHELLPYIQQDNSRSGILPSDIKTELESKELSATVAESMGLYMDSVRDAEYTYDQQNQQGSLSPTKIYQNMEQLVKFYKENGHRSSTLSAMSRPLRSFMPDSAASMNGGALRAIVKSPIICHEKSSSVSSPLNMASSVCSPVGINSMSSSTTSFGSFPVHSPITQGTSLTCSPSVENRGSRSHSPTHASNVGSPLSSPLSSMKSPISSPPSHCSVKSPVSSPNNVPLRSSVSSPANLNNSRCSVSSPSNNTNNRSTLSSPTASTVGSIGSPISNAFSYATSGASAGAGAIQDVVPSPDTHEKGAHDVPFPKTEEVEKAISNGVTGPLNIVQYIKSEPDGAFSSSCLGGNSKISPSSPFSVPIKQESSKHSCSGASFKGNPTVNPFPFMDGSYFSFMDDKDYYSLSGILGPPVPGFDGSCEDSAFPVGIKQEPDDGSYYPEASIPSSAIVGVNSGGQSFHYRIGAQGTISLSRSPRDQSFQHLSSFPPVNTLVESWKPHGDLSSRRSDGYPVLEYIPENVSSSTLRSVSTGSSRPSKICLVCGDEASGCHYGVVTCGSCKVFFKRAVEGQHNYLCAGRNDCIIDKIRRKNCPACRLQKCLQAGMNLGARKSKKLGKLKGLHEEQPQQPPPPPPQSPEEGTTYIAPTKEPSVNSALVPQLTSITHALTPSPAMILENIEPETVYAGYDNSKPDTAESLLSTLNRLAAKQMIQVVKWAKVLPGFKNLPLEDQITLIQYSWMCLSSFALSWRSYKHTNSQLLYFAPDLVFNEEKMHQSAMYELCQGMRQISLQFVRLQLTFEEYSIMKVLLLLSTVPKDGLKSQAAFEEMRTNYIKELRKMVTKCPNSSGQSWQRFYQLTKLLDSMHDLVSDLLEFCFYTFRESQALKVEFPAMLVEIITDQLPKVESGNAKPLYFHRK
Kind of experiment: Anti-aldosterone effect on the urinary Na/K ratio in Wistar rats compared to spironolactone. It counts as functional. Particulars: Urine.

The target of experiment [3] is T3, Progesterone receptor (Oryctolagus cuniculus) (UniProt P06186).
T3 sequence (whole entry): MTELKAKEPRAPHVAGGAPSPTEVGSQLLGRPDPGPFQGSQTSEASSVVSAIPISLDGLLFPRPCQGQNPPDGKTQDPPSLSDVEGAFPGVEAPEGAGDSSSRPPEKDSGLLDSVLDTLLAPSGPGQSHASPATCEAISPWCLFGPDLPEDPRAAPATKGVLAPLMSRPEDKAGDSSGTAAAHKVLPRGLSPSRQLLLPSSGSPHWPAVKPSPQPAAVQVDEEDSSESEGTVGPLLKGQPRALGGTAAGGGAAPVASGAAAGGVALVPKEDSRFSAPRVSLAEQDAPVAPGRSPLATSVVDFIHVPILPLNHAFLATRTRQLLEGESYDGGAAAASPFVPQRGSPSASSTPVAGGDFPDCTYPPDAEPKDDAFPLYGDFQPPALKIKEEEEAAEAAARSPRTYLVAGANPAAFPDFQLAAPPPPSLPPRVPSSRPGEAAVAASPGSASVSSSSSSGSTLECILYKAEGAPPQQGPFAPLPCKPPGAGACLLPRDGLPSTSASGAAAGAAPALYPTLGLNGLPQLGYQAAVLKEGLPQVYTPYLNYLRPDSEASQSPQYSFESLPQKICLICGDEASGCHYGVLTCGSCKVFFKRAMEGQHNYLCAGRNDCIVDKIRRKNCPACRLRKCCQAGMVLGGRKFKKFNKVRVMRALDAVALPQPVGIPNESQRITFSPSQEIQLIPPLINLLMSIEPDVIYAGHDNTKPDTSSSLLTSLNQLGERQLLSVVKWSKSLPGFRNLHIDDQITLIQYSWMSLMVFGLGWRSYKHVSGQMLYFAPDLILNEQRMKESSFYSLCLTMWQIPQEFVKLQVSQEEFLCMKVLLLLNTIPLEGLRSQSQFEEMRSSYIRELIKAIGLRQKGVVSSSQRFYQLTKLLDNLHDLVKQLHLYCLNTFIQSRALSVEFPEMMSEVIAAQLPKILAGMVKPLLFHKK
As to the kind of experiment: Binding to rabbit uterine progesterone receptor compared to progesterone.

Experiment [4] concerns Rattus norvegicus. Kind of experiment: Ovulation inhibitory activity in rats after 100 mg oral dose. Type of experiment: functional.
The target in experiment [5] is T3, Progesterone receptor (Oryctolagus cuniculus). As to the kind of experiment: Progestational activity on oral administration (300 mg) in rabbit. It counts as functional, organism-based.
The target in experiment [6] is T1, Androgen receptor (Rattus norvegicus). As to conditions: Seminal vesicle.
Description: Weight of seminal vesicle as anti-androgenic activity in rat after oral dose of 48+0.1 mg/day with testosterone propionate(0.1 mg/day)
Experiment [7] has the same target. As to the kind of experiment: Anogenital distance in rats after 50 mg/animal oral dose in Fetal Feminization test (control = 2.30+/-0.16). Type of experiment: functional.
The target is the same in experiment [8]. As to the kind of experiment: Weight of seminal vesicle as anti-androgenic activity in rat after oral dose of 12+0.1 mg/day with testosterone propionate(0.1 mg/day). It counts as functional.
The target is the same in experiment [9]. As to the kind of experiment: Weight of seminal vesicle as anti-androgenic activity in rat after oral dose of 24+0.1 mg/day with testosterone propionate(0.1 mg/day). Type of experiment: functional.
Experiment [10] shares this target. As to the kind of experiment: Weight of prostate as anti-androgenic activity in rat after oral dose of 12+0.1 mg/day with testosterone propionate(0.1 mg/day). It counts as functional. As to conditions: Prostate gland.
The target in experiment [11] is T3, Progesterone receptor (Oryctolagus cuniculus). As to the kind of experiment: Progestational activity on oral administration (100 mg) in rabbit. It counts as functional, organism-based.
Experiment [12] relates to Rattus norvegicus. As to the kind of experiment: Ovulation inhibitory activity in rats after 30 mg oral dose. Type of experiment: functional.
Experiment [13] deals with T1, Androgen receptor (Rattus norvegicus). As to conditions: Prostate gland.
Description: Weight of prostate as anti-androgenic activity in rat after oral dose of 96+0.1 mg/day with testosterone propionate(0.1 mg/day)
For experiment [14] the target is unchanged. Kind of experiment: Weight of prostate as anti-androgenic activity in rat after oral dose of 24+0.1 mg/day with testosterone propionate(0.1 mg/day). Type of experiment: functional. As to conditions: Prostate gland.
Experiment [15] shares this target. As to conditions: Prostate gland. This is another data set of the same source.
Description: Weight of prostate as anti-androgenic activity in rat after oral dose of 48+0.1 mg/day with testosterone propionate(0.1 mg/day)
The target of experiment [16] is T3, Progesterone receptor (Oryctolagus cuniculus). Kind of experiment: Progestational activity on oral administration (30 mg) in rabbit. Type of experiment: functional, organism-based.
Experiment [17] concerns the target T1, Androgen receptor (Rattus norvegicus). As to conditions: Seminal vesicle. This is another data set of the same source.
Description: Weight of seminal vesicle as anti-androgenic activity in rat after oral dose of 96+0.1 mg/day with testosterone propionate(0.1 mg/day)

With `CCCOC(=O)[C@@H]1CC2=CC(=O)[C@@H]3C[C@@H]3C2(C)C2CCC3(C)C(C21)[C@@H]1C[C@@H]1C31CCC(=O)O1` (stereo partly specified), the results for the Competition factor in experiment [1] and in experiment [3] were 33 and 19, respectively. Moreover, the Relative potency in experiment [2] is 39.
On to `CCOC(=O)[C@@H]1CC2=CC(=O)CCC2(C)C2CCC3(C)C(C21)[C@@H]1C[C@@H]1C31CCC(=O)O1` (stereo partly specified), for which the Competition factor in experiment [1] was 98; in experiment [3] it was 33. In addition, in [2], the Relative potency was less than 50.
`CC(=O)S[C@@H]1CC2=CC(=O)CC[C@]2(C)[C@H]2CC[C@@]3(C)[C@@H](CC[C@@]34CCC(=O)O4)[C@H]12` [SPIRONOLACTONE] gave an Inhibition in the experiment on Rattus norvegicus [4] of 100%.
For `COC(=O)[C@@H]1CC2=CC(=O)[C@@H]3C[C@@H]3C2(C)C2CCC3(C)C(C21)[C@@H]1C[C@@H]1C31CCC(=O)O1` (stereo partly specified), the values for the Competition factor in experiment [1] and in experiment [3] were 29 and 92, respectively. In [2], the Relative potency amounted to 140.
On to `CCOC(=O)[C@@H]1CC2=CC(=O)[C@@H]3C[C@@H]3C2(C)C2CCC3(C)C(C21)[C@@H]1C[C@@H]1C31CCC(=O)O1` (stereo partly specified), for which the Competition factor in experiment [1] worked out at 28; in experiment [3] it was 34. The Relative potency in experiment [2] turned out to be 187.
Regarding `COC(=O)[C@@H]1CC2=CC(=O)CCC2(C)C2CCC3(C)C(C21)[C@@H]1C[C@@H]1C31CCC(=O)O1` (stereo partly specified), the McPhail index came out at 1.8 in [5], 1.8 in [11] and 1.4 in experiment [16]. The Organ weight was determined as 47 mg in [6]; 44 mg in experiment [8]; 37 mg in [9]; 38 mg in [10]; 30 mg in [13]; 33 mg in [14]. The Organ weight was determined as 41 mg in experiment [15] and 42 mg in [17]. Moreover, the Anogenital distance in experiment [7] worked out at 2 mm. The figures for the Competition factor in experiment [1] and in experiment [3] were 112 and 25, respectively. Also, the Relative potency in experiment [2] worked out at 217. For the same compound, the Inhibition in the experiment on Rattus norvegicus [12] and in the experiment on Rattus norvegicus [4] was 0% throughout.
For the compound `COC(=O)[C@@H]1CC2=CC(=O)C=CC2(C)C2CCC3(C)C(C21)[C@@H]1C[C@@H]1C31CCC(=O)O1` (stereo partly specified), in [2], the Relative potency was less than 50.
Turning to `CC(C)OC(=O)[C@@H]1CC2=CC(=O)C=CC2(C)C2CCC3(C)C(C21)[C@@H]1C[C@@H]1C31CCC(=O)O1` (stereo partly specified), the Competition factor in experiment [1] stood at 266; in experiment [3], 113. Also, the Relative potency in [2] was less than 50.
Turning to `COC(=O)[C@@H]1CC2=CC(=O)[C@@H]3C[C@@H]3C2(C)C2CCC3(C)C(C21)[C@H]1C[C@H]1C31CCC(=O)O1` (stereo partly specified), the Competition factor in experiment [1] turned out to be 53; in experiment [3], 98. Besides, the Relative potency in [2] came to 140.
With `CC(C)OC(=O)[C@@H]1CC2=CC(=O)CCC2(C)C2CCC3(C)C(C21)[C@@H]1C[C@@H]1C31CCC(=O)O1` (stereo partly specified), the Competition factor in [1] came to 67; in experiment [3], 12. The Relative potency in experiment [2] is less than 50.
Consider `CCOC(=O)[C@@H]1CC2=CC(=O)C=CC2(C)C2CCC3(C)C(C21)[C@@H]1C[C@@H]1C31CCC(=O)O1` (stereo partly specified), for which the Relative potency in [2] was less than 50. For the same compound, the Competition factor in [3] came to 85.
For `COC(=O)[C@@H]1CC2=CC(=O)CCC2(C)C2CCC3(C)C(CCC34CCC(=O)O4)C21` (stereo partly specified), the Competition factor in experiment [1] was 142; in [3], 130. In experiment [2], the Relative potency was 104.
Turning to `COC(=O)[C@@H]1CC2=CC(=O)CCC2(C)C2CCC3(C)C(C21)[C@H]1C[C@H]1C31CCC(=O)O1` (stereo partly specified), the values for the Competition factor in experiment [1] and in [3] were 121 and 10, respectively. In [2], the Relative potency came to 50.
The matching figures for `CC(C)OC(=O)[C@@H]1CC2=CC(=O)[C@@H]3C[C@@H]3C2(C)C2CCC3(C)C(C21)[C@@H]1C[C@@H]1C31CCC(=O)O1` (stereo partly specified): 40, 19 and 140.
